Source: US4329347A, “Cardiotonic and antithrombotic sulfur-containing derivatives of carbostyril” (Boehringer Ingelheim GmbH, priority 1978, dated 1982)

Test system: phosphodiesterase (PDE), supernatant of human blood platelets
Assay: PDE inhibition (3H-cAMP hydrolysis)
Assay type: biochemical
Settings: human blood platelet PDE, 1 μmol/liter 3H-cAMP, pH 7.4, 15 minutes, 37° C.
Protocol: cAMP is hydrolysed to AMP by phosphodiesterase (PDE) from various sources, including blood platelets. This hydrolysis is inhibited by PDE inhibitors according to the concentration.
The phosphodiesterase used was the 10,000×g supernatant of human blood platelets which had been frozen with water and thawed out again.
An amount of 0.3 ml of a mixture which contained 0.1 mole/liter of trihydroxy-aminomethane (pH 7.4), 3 mmole/liter of magnesium chloride, 1 mmole/liter of AMP, 1 μmol/liter of ^3 H-cAMP (specific activity about 10 MBq/μmol), PDE as well as the substance to be tested and water for the control were incubated for 15 minutes at 37° C.
The incubation was stopped by the addition of 0.5 ml of zinc sulfate (0.266 mole/liter) and 0.5 ml of barium hydroxide (0.266 mole/liter), the precipitate was centrifuged and the activity remaining in the supernatant of the unreacted ^3 H-cAMP was determined. From a comparison of the substance preparations and the control preparations, the concentration for a 50% inhibiting activity (IC50) of the respective substance was calculated.

With `O=c1ccc2cc(OCCCC[S+]([O-])c3ccc4ccccc4n3)ccc2[nH]1` (stereo not drawn) [W, 6-[4-(2-Quinolylsulfinyl)-butoxy]-carbostyril] the IC50 was 140 nM.
With `O=c1ccc2c(Br)c(OCCCC[S+]([O-])c3ccccc3)ccc2[nH]1` (stereo not drawn) [Y, 5-Bromo-6-(4-phenylsulfinyl-butoxy)-carbostyril] the IC50 was 100 nM.
Compound `O=C1CCc2cc(OCCCC[S+]([O-])c3ccc(C4CCCCC4)cc3)ccc2N1` (stereo not drawn) [CC, 6-[4-(4-Cyclohexylphenylsulfinyl)-butoxy]-3,4-dihydro-carbostyril] has an IC50 of 1600 nM.
For `Nc1c(Br)cc([S+]([O-])CCCCOc2ccc3[nH]c(=O)ccc3c2)cc1Br` (stereo not drawn) [BB, 6-[4-(3,5-Dibromo-4-aminophenylsulfinyl)-butoxy]-carbostyril], the IC50 was 50 nM.
Work on `O=c1ccc2cc(OCCCC[S+]([O-])C3CCCCC3)ccc2[nH]1` (stereo not drawn) [X, 6-(4-Cyclohexylsulfinyl-butoxy)-carbostyril] yielded an IC50 of 700 nM.
With `O=c1ccc2cc(OCCCC[S+]([O-])c3ccc(-c4ccccc4)cc3)ccc2[nH]1` (stereo not drawn) [V, 6-[4-(4-Biphenylylsulfinyl)-butoxy]-carbostyril] the IC50 was 120 nM.
`CC(C)(C)c1ccc([S+]([O-])CCCCOc2ccc3[nH]c(=O)ccc3c2)cc1` (stereo not drawn) [EE, 6-[4-(4-tert.-Butylphenylsulfinyl)-butoxy]-carbostyril] gave an IC50 of 30 nM.
`Nc1c(Br)cc([S+]([O-])CCCCOc2ccc3c(c2)CCC(=O)N3)cc1Br` (stereo not drawn) [AA, 6-[4-(3,5-Dibromo-4-aminophenylsulfinyl)-butoxy]-3,4-dihydrocarbostyril] was tested, and the IC50 was 250 nM.
`CN(C(=O)C[S+]([O-])CCOc1ccc2[nH]c(=O)ccc2c1)C1CCCCC1` (stereo not drawn) [Z, 6-[2-(N-Methyl-N-cyclohexyl-carbamidomethyl-sulfinyl)-ethoxy]-carbostyril] was tested, and the IC50 was 500 nM.
